Source: publication PMC9260081, “Design, Synthesis, and Evaluation of Anticonvulsant Activities of New Triazolopyrimidine Derivatives” (Frontiers in Chemistry, 2022)
Like-named read-outs stand apart in the source and are kept apart here.

Columns and labels:
MES-induced seizures = assay: Maximal electroshock seizure (MES) test; format: in vivo, mice; conditions: for minimal effective dose: dosages 30, 100, 300 mg/kg, read-out: MES screening, minimum dose whereby bioactivity was demonstrated in half or more of the mice
Procedure: (§1) Male Kunming mice with weights from 18 to 22 g were used in all the pharmacological experiments. The mice were housed in the standard cages with 10 each, where a controlled temperature (25°C ± 2°C) with a 12 h light/dark cycle was maintained. All animals had free access to food and water. All experiments and procedures involving animals were carried out according to the Guide for the Care and Use of Laboratory Animals (National Academies Press, Washington, D.C., United States). Approval from the local medical ethical committee was obtained before the experiment.
In the MES test, mice were subjected to ear stimulation using a 0.2 s 60-Hz 50-mA alternating current to elicit seizures. Tonic hind limb extension was considered as the seizure occurring, and the vanishing of tonic hind limb extension indicates the protection against the MES-induced seizures. Mice were injected intraperitoneally with test compounds at doses of 300, 100, and 30 mg/kg to evaluate their general anticonvulsant activity. Half and 4 h intervals were chosen to test the anti-MES activity. […] A series of doses of the tested compounds were injected into the mice with 10 in one group.

PTZ-induced seizures = assay: Subcutaneous pentylenetetrazole (PTZ) test; format: in vivo, mice; conditions: ip; for minimal effective dose: dosages 30, 100, 300 mg/kg, read-out: PTZ screening, minimum dose whereby bioactivity was demonstrated in half or more of the mice
Procedure: as §1
In the PTZ test, mice were subcutaneously administered with PTZ at the dose of 85 mg/kg. At this dose, mice can be elicited a threshold seizure characterized by an episode of clonic spasms and tonic spasms. After being treated with test compounds at doses of 300, 100, and 30 mg/kg, the mice were considered protected if a single episode of clonic spasms of more than 5 s duration was not obtained. The quantitative anticonvulsant activity (ED50) in the PTZ model was determined and calculated with the same method described in the MES test.

[1] = tested on: ability to maintain equilibrium on rotating rod; assay: Neurotoxicity screening (rotarod test); format: in vivo; conditions: i.p.; for NT screening (rotarod), minimum neurotoxic dose in half or more of the mice: dosages 30, 100, 300 mg/kg
Procedure: as §1
The rotarod test was used to evaluate the neurotoxicity of the synthesized compounds. Before the formal experiments, mice were trained to climb on a rotating rod of diameter 3.2 cm with the rotation speed of 10 rpm. Test compounds in the three doses were intraperitoneally injected into the trained mice. […] The rough neurotoxic dose was obtained in which mice cannot maintain equilibrium on the rod for at least 1 min. The quantitative neurotoxic dose (TD50) of the test compounds was measured and calculated with the same method described in the MES test.

[2] = Mus musculus, ip, mice, 0.5 h after injection
[3] = Mus musculus, ip, mice, 4 h after injection
[4] = Mus musculus, mice, 0.5 h after injection
[5] = Mus musculus, mice, 4 h after injection

| Structure (SMILES) | minimal effective dose (MES-induced seizures; [2]) | minimal effective dose (MES-induced seizures; [3]) | minimal effective dose (PTZ-induced seizures; [4]) | minimal effective dose (PTZ-induced seizures; [5]) | NT screening (rotarod), minimum neurotoxic dose in half or more of the mice ([1]; 0.5 h after injection) | NT screening (rotarod), minimum neurotoxic dose in half or more of the mice ([1]; 4 h after injection) | ED50 (MES-induced seizures; Mus musculus, ip, mice, 95% confidence interval in brackets, read-out: ED50 MES) | PI MES, protective index (TD50/ED50) (MES-induced seizures; TD50 rotarod / ED50 MES, mice i.p.) | ED50 (PTZ-induced seizures; Mus musculus, mice, 95% confidence interval in brackets, read-out: ED50 scPTZ) | PI scPTZ, protective index (TD50/ED50) (PTZ-induced seizures; male, Kunming, mouse, in vivo) | TD50 ([1]; rotarod, mice, 95% confidence interval in brackets) |
| --- | --- | --- | --- | --- | --- | --- | --- | --- | --- | --- | --- |
| c1ccc(-c2ccnc3ccnn23)cc1 [Compound 4a, 7-Phenylpyrazolo[1,5-a]pyrimidine] | > 300 mg/kg | > 300 mg/kg | > 300 mg/kg | > 300 mg/kg | — (A dash indicates the absence of anticonvulsant activity and neurotoxicity at the maximum dose administered (300 mg/kg)) | — (A dash indicates the absence of anticonvulsant activity and neurotoxicity at the maximum dose administered (300 mg/kg)) |  |  |  |  |  |
| CCCOc1ccc(-c2ccnc3ncnn23)cc1 [Compound 6a, 7-(4-Propoxyphenyl)-[1,2,4]triazolo[1,5-a]pyrimidine] | 300 mg/kg | > 300 mg/kg | 300 mg/kg | > 300 mg/kg | — (A dash indicates the absence of anticonvulsant activity and neurotoxicity at the maximum dose administered (300 mg/kg)) | — (A dash indicates the absence of anticonvulsant activity and neurotoxicity at the maximum dose administered (300 mg/kg)) |  |  |  |  |  |
| O=[N+]([O-])c1ccc(-c2ccnc3ccnn23)cc1 [Compound 4g, 7-(4-Nitrophenyl)pyrazolo[1,5-a]pyrimidine] | > 300 mg/kg | > 300 mg/kg | > 300 mg/kg | > 300 mg/kg | — (A dash indicates the absence of anticonvulsant activity and neurotoxicity at the maximum dose administered (300 mg/kg)) | — (A dash indicates the absence of anticonvulsant activity and neurotoxicity at the maximum dose administered (300 mg/kg)) |  |  |  |  |  |
| CCCC(CCC)C(=O)O [Valproate, reference compound] |  |  |  |  |  |  | 264 mg/kg | 1.6 | 149 mg/kg | 2.8 | 418 (369–450) mg/kg |
| Fc1ccc(-c2ccnc3ccnn23)cc1 [Compound 4b, 7-(4-Fluorophenyl)pyrazolo[1,5-a]pyrimidine] | > 300 mg/kg | > 300 mg/kg | > 300 mg/kg | > 300 mg/kg | — (A dash indicates the absence of anticonvulsant activity and neurotoxicity at the maximum dose administered (300 mg/kg)) | — (A dash indicates the absence of anticonvulsant activity and neurotoxicity at the maximum dose administered (300 mg/kg)) |  |  |  |  |  |
| Cc1ccc(-c2ccnc3ncnn23)cc1 [Compound 3h, 7-(P-tolyl)-[1,2,4]triazolo[1,5-a]pyrimidine] | 300 mg/kg | > 300 mg/kg | 100 mg/kg | > 300 mg/kg | — (A dash indicates the absence of anticonvulsant activity and neurotoxicity at the maximum dose administered (300 mg/kg)) | — (A dash indicates the absence of anticonvulsant activity and neurotoxicity at the maximum dose administered (300 mg/kg)) |  |  |  |  |  |
| O=[N+]([O-])c1ccc(-c2ccnc3ncnn23)cc1 [Compound 3g, 7-(4-Nitrophenyl)-[1,2,4]triazolo[1,5-a]pyrimidine] | > 300 mg/kg | > 300 mg/kg | > 300 mg/kg | > 300 mg/kg | — (A dash indicates the absence of anticonvulsant activity and neurotoxicity at the maximum dose administered (300 mg/kg)) | — (A dash indicates the absence of anticonvulsant activity and neurotoxicity at the maximum dose administered (300 mg/kg)) |  |  |  |  |  |
| Brc1ccc(-c2ccnc3ccnn23)cc1 [Compound 4f, 7-(4-Bromophenyl)pyrazolo[1,5-a]pyrimidine] | > 300 mg/kg | > 300 mg/kg | > 300 mg/kg | > 300 mg/kg | — (A dash indicates the absence of anticonvulsant activity and neurotoxicity at the maximum dose administered (300 mg/kg)) | — (A dash indicates the absence of anticonvulsant activity and neurotoxicity at the maximum dose administered (300 mg/kg)) |  |  |  |  |  |
| Clc1ccc(-c2ccnc3ncnn23)cc1 [Compound 3d, 7-(4-Chlorophenyl)-[1,2,4]triazolo[1,5-a]pyrimidine] | > 300 mg/kg | > 300 mg/kg | > 300 mg/kg | > 300 mg/kg | — (A dash indicates the absence of anticonvulsant activity and neurotoxicity at the maximum dose administered (300 mg/kg)) | — (A dash indicates the absence of anticonvulsant activity and neurotoxicity at the maximum dose administered (300 mg/kg)) |  |  |  |  |  |
| COc1ccc(-c2ccnc3ccnn23)cc1 [Compound 4i, 7-(4-Methoxyphenyl)pyrazolo[1,5-a]pyrimidine] | > 300 mg/kg | > 300 mg/kg | 300 mg/kg | > 300 mg/kg | — (A dash indicates the absence of anticonvulsant activity and neurotoxicity at the maximum dose administered (300 mg/kg)) | — (A dash indicates the absence of anticonvulsant activity and neurotoxicity at the maximum dose administered (300 mg/kg)) |  |  |  |  |  |
| CCCCOc1ccc(-c2ccnc3ncnn23)cc1 [Compound 6b, 7-(4-Butoxyphenyl)-[1,2,4]triazolo[1,5-a]pyrimidine] | 100 mg/kg | > 300 mg/kg | 300 mg/kg | > 300 mg/kg | — (A dash indicates the absence of anticonvulsant activity and neurotoxicity at the maximum dose administered (300 mg/kg)) | — (A dash indicates the absence of anticonvulsant activity and neurotoxicity at the maximum dose administered (300 mg/kg)) |  |  |  |  |  |
| Clc1ccc(-c2ccnc3ccnn23)cc1 [Compound 4d, 7-(4-Chlorophenyl)pyrazolo[1,5-a]pyrimidine] | > 300 mg/kg | > 300 mg/kg | > 300 mg/kg | > 300 mg/kg | — (A dash indicates the absence of anticonvulsant activity and neurotoxicity at the maximum dose administered (300 mg/kg)) | — (A dash indicates the absence of anticonvulsant activity and neurotoxicity at the maximum dose administered (300 mg/kg)) |  |  |  |  |  |
| Cc1ccc(-c2ccnc3ccnn23)cc1 [Compound 4h, 7-(P-tolyl)pyrazolo[1,5-a]pyrimidine] | > 300 mg/kg | > 300 mg/kg | 300 mg/kg | > 300 mg/kg | — (A dash indicates the absence of anticonvulsant activity and neurotoxicity at the maximum dose administered (300 mg/kg)) | — (A dash indicates the absence of anticonvulsant activity and neurotoxicity at the maximum dose administered (300 mg/kg)) |  |  |  |  |  |
| Brc1ccc(-c2ccnc3ncnn23)cc1 [Compound 3f, 7-(4-Bromophenyl)-[1,2,4]triazolo[1,5-a]pyrimidine] | > 300 mg/kg | > 300 mg/kg | > 300 mg/kg | > 300 mg/kg | — (A dash indicates the absence of anticonvulsant activity and neurotoxicity at the maximum dose administered (300 mg/kg)) | — (A dash indicates the absence of anticonvulsant activity and neurotoxicity at the maximum dose administered (300 mg/kg)) |  |  |  |  |  |
